Results published in US5698567A, “Heterocyclic spiro compounds” (Adir Et Compagnie, priority 1995, dated 1997).
Structures can show the parent of a compound that is named as a salt.

Legend:
[1] = tested on: 5-lipoxygenase; assay: Inhibition of the synthesis of LTB4 by the peritoneal PMN of rats in vitro (5-lipoxygenase-inhibiting activity); type: cell-based, rat; conditions: for LTB4 % Inhibition: rat peritoneal PMN; for LTB4 % Inhibition / IC50: A23187 10^-6 M; for IC50: rat peritoneal PMN in vitro
Description: 1.1 Determination of 5-1ipoxygenase-inhibiting activity in vitro (see Goldyne M. E., Burrish G. F., Poubelle P. and Borgeat P., Arachidonic Acid Metabolism among human mononuclear leukocytes. The Journal of Biological Chemistry. Vol. 259, N° 4, p. 8815-8819, 1984, and New Chang C. and Gin Wensu. Stimulation of 5-Lipoxygenase Activity in Polymorphonuclear Leukocytes of Rats by Caseinate Treatment. Biochemical Pharmacology. Vol. 36, N° 8, p. 3033-3036, 1987).
(§1) 5-Lipoxygenase-inhibiting activity was determined on peritoneal leukocytes of rats. Leukocytosis is induced in male OFA rats (IFFA CREDO) weighing 200-250 g by the intraperitoneal injection of 12% sodium caseinate. 18 hours later, the cells are collected by washing the abdominal cavity. The number of cells is adjusted to 2×10^6 /ml.
(§2) The cell suspension is incubated for 10 minutes at 37° C. in the presence of Ca^2+ 5×10^-4 M and Mg^2+ 2×10^-3 M and of various concentrations of the test products. The cells are then stimulated with the calcium ionophore A23187 at a concentration of 10^-6 M for 5 minutes at 37° C. Controls are carded out by incubating the cells with the solvent for the products: 2% DMSO.
After stopping the reaction at +4° C. and centrifugation, the quantity of LTB4 in ng/2×10^6 cells in the supernatants is determined by the E.I.A. method (Statlergenes France). The percentage inhibition is calculated as follows: [formula]
(§3) Metabolism of arachidonic acid by the peritoneal PMN of rats stimulated
(§4) for 5 minutes in vitro by the calcium ionophore (A23187): 10^-6 M.
(§5) Incubation of the products with the cells for 10 minutes prior to
(§6) stimulation with the ionophore.

[2] = tested on: synthesis of PGE2 by the peritoneal PMN of rats; assay: Inhibition of the synthesis of PGE2 by the peritoneal PMN of rats in vitro; type: cell-based, rat; conditions: A23187; for IC50: rat peritoneal PMN in vitro; for inhibition at 100 µM: 10^-4 M; for inhibition at 100 µM / inhibition at 10 µM: rat peritoneal PMN; for inhibition at 10 µM: 10^-5 M
Procedure: as §1, §2, §3, §4, §5, §6

[3] = tested on: 5-lipoxygenase; assay: Inhibition of the synthesis of LTB4 in total blood of rats ex vivo (5-lipoxygenase-inhibiting activity); parameters: species or system rat; conditions: 60 μmol/kg p.o., 1 h; A23187 5 × 10^-5 M, n = 8
Procedure: 1.2 Determination of 5-lipoxygenase-inhibiting activity ex vivo (see Brideau C., Chan C., Charleson S., Denis D. et al. Pharmacology of MK-0591 (3-[1-(4-chlorobenzyl)-3-(t-butyl-thio)-5(quinolin-2-yl-methoxy)-indol-2-yl]-2,2-dimethyl propanoic acid), a Potent, Orally Active Leukotriene Biosynthesis Inhibitor. Can. J. Physiol. Pharmacol. Vol. 70, p. 799-807, 1992).
Inhibition of the biosynthesis of leukotrienes ex vivo following oral administration of the compounds was determined by studying the production of leukotrienes on total blood of rats stimulated in vitro by the calcium ionophore at time 1 hour after oral administration of the compounds.
The various products are administered in suspension in hydroxyethylcellulose: 0.5% H.E.C. at a dose of 60 μmol/kg. Each product is studied on a group of 8 different animals. A control group receives 0.5% H.E.C. only. After intracardial removal of the blood from each rat (male Sprague Dawley rats weighing 150-200 g IFFA CREDO), 1 ml of heparinised blood is incubated with the calcium ionophore A23 187 at a concentration of 5×10^-5 M for 10 minutes at 37° C. The blood is then centrifuged immediately and 100 μl of plasma are extracted in 400 μl of methanol. After centrifugation, the supernatant is evaporated to dryness under N2, the dry residue is taken up in buffer solution, and the LTB4 is assayed by the E.I.A. method (Stallergenes France).
The percentage inhibition is expressed as follows: [formula] 2/Results
Average relative to all controls n = 31
Products administered p.o. 1 hour before removal of blood n = 8
Total blood of rats stimulated for 10 minutes in vitro by the calcium

| SMILES | IC50 [1] | LTB4 % Inhibition ([1]; 10^-6 M) | LTB4 % Inhibition ([1]; 10^-7 M) | also measured |
| --- | --- | --- | --- | --- |
| O=C1NCC2(CCN(CC(O)c3ccc(OCc4ccc5ccccc5n4)cc3)CC2)O1 (racemic) [Example 5, (R,S)-8-{2-hydroxy-2-[4-(quinol-2-ylmethoxy)phenyl]ethyl}-3,8-diaza-1-oxa-2-oxospiro[4,5]decane] |  | 95% | 15% | IC50 [2]: > 100 µM |
| O=C1NCC2(CCN(CC(c3ccccc3)c3ccc(OCc4ccc5ccccc5n4)cc3)CC2)O1 (racemic) [Example 6, (R,S)-8-{2-phenyl-2-[4-(quinol-2-ylmethoxy)phenyl]ethyl}-3,8-diaza-1-oxa-2-oxospiro[4,5]decane] |  | 100% | 93% | LTB4 % Inhibition ([1]; 4.10^-8 M): 60%; LTB4 % Inhibition ([1]; 10^-8 M): 21%; % Inhibition of the synthesis of LTB4 in total blood of rats ex vivo [3]: 64%; inhibition at 100 µM [2]: 88%; inhibition at 10 µM [2]: 3% |
| O=C1NCC2(CCN(CC(c3ccccc3)c3ccc(OCc4ccc5ccccc5c4)cc3)CC2)O1 (racemic) [Example 7, (R,S)-8-{2-[4-(naphth-2-ylmethoxy)phenyl]-2-phenylethyl}-3,8-diaza-1-oxa-2-oxospiro[4,5]decane] | > 1 µM |  | 36% |  |
| O=C1NCC2(CCN(CC(c3ccccc3)c3ccc(OCc4ccc(-c5ccccc5)cn4)cc3)CC2)O1 (racemic) [Example 9, (R,S)-8-{2-phenyl-2-[4-(5-phenylpyrid-2-ylmethoxy)phenyl]ethyl}-3,8-diaza-1-oxa-2-oxospiro[4,5]decane] | > 0.1 µM |  |  |  |
| c1ccc(C(CN2CCC3(CC2)OCCO3)c2ccc(OCc3ccc4ccccc4n3)cc2)cc1 (racemic) [Example 10, (R,S)-8-{2-phenyl-2-[4-(quinol-2-ylmethoxy)phenyl]ethyl}-8-aza-1,4-dioxaspiro[4,5]decane dihydrochloride] | > 0.1 µM |  | 28% | LTB4 % Inhibition ([1]; 10^-5 M): 92% |
| O=C1NC2(CCN(CC(c3ccccc3)c3ccc(OCc4ccc5ccccc5n4)cc3)CC2)CO1 (racemic) [Example 11, (R,S)-8-{2-phenyl-2-[4-(quinol-2-ylmethoxy)phenyl]ethyl}-1,8-diaza-3-oxa-2-oxospiro[4,5]decane] | > 0.1 µM |  | 38% | LTB4 % Inhibition ([1]; 10^-5 M): 76% |
| Cn1c(=O)ccc2cc(COc3ccc(C(c4ccccc4)N4CCC5(CC4)CNC(=O)O5)cc3)ccc21 (racemic) [Example 25, (R,S)-8-{[4-(1-methyl-2-oxo-1H-quinol-6-ylmethoxy)phenyl]phenylmethyl}-3,8-diaza-1-oxa-2-oxospiro[4,5]decane] |  | 7% | 8% |  |
| O=C1NCC2(CCN(CCc3ccc(OCc4ccc5ccccc5n4)cc3)CC2)O1 [Example 2, 8-{2-[4-(quinol-2-ylmethoxy)phenyl]ethyl}-3,8-diaza-1-2-oxospiro[4,5]decane] |  | 90% |  | inhibition at 100 µM [2]: 23%; IC50 [2]: > 100 µM |
| Cn1c(=O)ccc2cc(COc3ccc(CCN4CCC5(CC4)CNC(=O)O5)cc3)ccc21 [Example 3, 8-{2-[4-[(1-methyl-2-oxo-1H-quinol-6-yl)methoxy]phenyl]ethyl}-3,8-diaza-1-oxa-2-oxospiro[4,5]decane] | > 100 µM |  |  |  |
| O=C1NCC2(CCN(CCc3ccccc3)CC2)O1 [fenspiride, 8(2-phenylethyl)-3,8-diaza-1-oxa-2-oxospiro[4,5]decane, reference compound] |  |  |  | activity of reference product tested under the same conditions (Table 1) ([1]; 10^-4 M): inactive |

Now from value to compound, other results behind:

| IC50 [1] | SMILES | LTB4 % Inhibition ([1]; 10^-6 M) | LTB4 % Inhibition ([1]; 10^-7 M) | also measured |
| --- | --- | --- | --- | --- |
| 0.1 µM | O=C1OC2(CCN(CC(c3ccccc3)c3ccc(OCc4ccc5ccccc5n4)cc3)CC2)CN1CCc1ccccc1 (racemic) [Example 12, (R,S)-3-(2-phenylethyl)-8-{2-phenyl-2-[4-(quinol-2-ylmethoxy)phenyl]ethyl}-3,8-diaza-1-oxa-2-oxospiro[4,5]decane] |  | 53% | LTB4 % Inhibition ([1]; 10^-5 M): 98%; inhibition at 100 µM [2]: 86%; inhibition at 10 µM [2]: 92%; IC50 [2]: < 10 µM |
| > 0.1 µM | CC1NC(=O)OC12CCN(CC(c1ccccc1)c1ccc(OCc3ccc4ccccc4n3)cc1)CC2 (racemic) [Example 13, (R,S), (R,S)-4-methyl-8-{2-phenyl-2-[4-quinol-2-ylmethoxy)phenyl]ethyl}-3,8-diaza-1-oxa-2-oxospiro[4,5]decane] |  | 21% | LTB4 % Inhibition ([1]; 10^-5 M): 91% |
| > 1 µM | O=C1NCC2(CCN(C(c3ccccc3)c3ccc(OCc4ccc5ccccc5c4)cc3)CC2)O1 (racemic) [Example 23, (R,S)-8-{[4-(naphth-2-ylmethoxy)phenyl]phenylmethyl}-3,8-diaza-1-2-oxospiro[4,5]decane] |  | 9% |  |
| > 0.1 µM | O=C1NCC2(CCN(C(c3ccccc3)c3ccc(OCc4ccc(-c5ccccc5)cn4)cc3)CC2)O1 (racemic) [Example 26, (R,S)-8-{phenyl-[4-(5-phenylpyrid-2-ylmethoxy)phenyl]methyl}-3,8-diaza-1-oxa-2-oxospiro[4,5]decane] |  |  |  |
| > 1 µM | O=C1NCC2(CCN(CC(Cc3ccccc3)c3ccc(OCc4ccccc4)cc3)CC2)O1 (racemic) [Example 31, (R,S)-8-[2-(4-benzyloxyphenyl)-3-phenylpropyl]-3,8-diaza-1-oxa-2-oxospiro[4,5]decane hydrochloride] | 16% |  |  |
| > 1 µM | O=C1NCC2(CCN(CC(Cc3ccc(Cl)cc3)c3ccc(OCc4ccc(-c5ccccc5)cn4)cc3)CC2)O1 (racemic) [Example 35, (R,S)-8-{3-(4-chlorophenyl)-2-[4-(5-phenylpyrid-2-ylmethoxy)phenyl]propyl}-3,8-diaza-1-oxa-2-oxospiro[4,5]decane] |  |  |  |
| > 0.1 µM | O=C1NCC2(CCN(CC(c3ccc(OCc4ccc5ccccc5n4)cc3)C3CCCC3)CC2)O1 (racemic) [Example 36, (R,S)-8-{2-cyclopentyl-2-[4-(quinol-2-ylmethoxy)phenyl]ethyl}-3,8-diaza-1-oxa-2-oxospiro[4,5]decane hydrochloride] |  |  |  |
| > 0.1 µM | O=C1NCC2(CCN(C(=O)C(c3ccc(OCc4ccc5ccccc5n4)cc3)C3CCCC3)CC2)O1 (racemic) [Example 43, (R,S)-8-{cyclopentyl-[4-(quinol-2-ylmethoxy)phenyl]acetyl}-3,8-diaza-1-oxa-2-oxospiro[4,5]decane hydrochloride] |  | 8% |  |
| > 1 µM | O=C1NCC2(CCN(CC(=O)c3ccc(OCc4ccc5ccccc5n4)cc3)CC2)O1 [Example 28, 8-{2-oxo-2-[4-(quinol-2-ylmethoxy)phenyl]ethyl}-3,8-diaza-1-oxa-2-oxospiro[4,5]decane] | 37% |  |  |
| > 1 µM | O=C1NCC2(CCN(C(=O)Cc3ccc(OCc4ccc5ccccc5n4)cc3)CC2)O1 [Example 29, 8-{[4-(quinol-2-ylmethoxy)phenyl]acetyl}-3,8-diaza-1-oxa-2-oxospiro[4,5]decane] | 18% | 30% |  |
| > 1 µM | O=C1NCC2(CCN(C(=O)c3ccc(OCc4ccc5ccccc5n4)cc3)CC2)O1 [Example 30, 8-[4-(quinol-2-ylmethoxy)benzoyl]-3,8-diaza-1-oxa-2-oxospiro[4,5]decane] | 14% |  |  |
